For one compound, Activity results are on record in ChEMBL document CHEMBL5543147, “Discovery and Characterization of a Novel Cereblon-Recruiting PRC1 Bridged PROTAC Degrader” (J Med Chem, 2024).

Type in all cases: cell-based
The target in assay [1] is Protein cereblon/Histone-lysine N-methyltransferase EZH2 (Homo sapiens) (UniProt Q15910+Q96SW2). As to the kind of experiment: PROTAC activity at CRBN/EZH2 in human MDA-MB-468 cells assessed as degradation of EZH2 protein expression at 5 uM incubated for 24 hrs by Western blotting analysis.
In assay [2] the target is Protein cereblon/E3 ubiquitin-protein ligase RING2 (Homo sapiens, UniProt Q96SW2+Q99496). As to the kind of experiment: PROTAC activity at CRBN/RING1B in human 786-0 cells with defective VHL assessed as degradation of RING1B protein expression at 10 uM incubated for 24 hrs by Western blotting analysis. On the technique in general: Immunoblotting shows a protein as a band on a membrane.

Assay [3] has as its target Protein cereblon/Eukaryotic peptide chain release factor GTP-binding subunit ERF3A (Homo sapiens) (UniProt Q96SW2+P15170). The assay can be described thus: PROTAC activity at CRBN/GSPT1 in human K562 cells assessed as degradation of GSPT1 protein at 0.1 to 10 uM incubated for 4 hrs by Western blotting analysis. To be noted: dose 0.1-10 µM.

Activity calls are given as the source filed them. No cut-off for these calls is given here.

Protein cereblon/E3 ubiquitin-protein ligase RING2, sequence (Q96SW2 whole entry): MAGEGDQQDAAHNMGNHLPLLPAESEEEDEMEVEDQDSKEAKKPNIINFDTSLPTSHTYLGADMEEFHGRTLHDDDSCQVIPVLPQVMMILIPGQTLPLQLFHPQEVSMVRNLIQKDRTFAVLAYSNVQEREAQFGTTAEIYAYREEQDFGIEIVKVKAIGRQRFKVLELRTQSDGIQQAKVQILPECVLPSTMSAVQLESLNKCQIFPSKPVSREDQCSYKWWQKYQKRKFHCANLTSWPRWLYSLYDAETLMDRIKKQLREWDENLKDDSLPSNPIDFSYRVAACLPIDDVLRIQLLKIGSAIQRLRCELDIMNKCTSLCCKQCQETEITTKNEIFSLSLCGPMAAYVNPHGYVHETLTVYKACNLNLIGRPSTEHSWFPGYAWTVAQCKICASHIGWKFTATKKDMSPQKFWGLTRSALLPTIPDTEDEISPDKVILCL
Protein cereblon/E3 ubiquitin-protein ligase RING2, sequence (Q99496 2-336 partner limits assumed): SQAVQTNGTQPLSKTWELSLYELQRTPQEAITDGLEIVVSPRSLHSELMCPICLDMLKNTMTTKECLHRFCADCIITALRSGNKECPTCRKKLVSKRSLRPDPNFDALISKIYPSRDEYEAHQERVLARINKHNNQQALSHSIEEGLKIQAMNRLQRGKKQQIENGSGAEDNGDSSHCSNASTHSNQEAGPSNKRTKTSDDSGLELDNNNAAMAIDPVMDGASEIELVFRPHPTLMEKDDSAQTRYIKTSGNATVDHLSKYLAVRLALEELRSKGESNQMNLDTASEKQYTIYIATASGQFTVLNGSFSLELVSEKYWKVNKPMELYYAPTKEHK
Protein cereblon/Histone-lysine N-methyltransferase EZH2 (Homo sapiens), sequence (Q15910 whole entry, looked up): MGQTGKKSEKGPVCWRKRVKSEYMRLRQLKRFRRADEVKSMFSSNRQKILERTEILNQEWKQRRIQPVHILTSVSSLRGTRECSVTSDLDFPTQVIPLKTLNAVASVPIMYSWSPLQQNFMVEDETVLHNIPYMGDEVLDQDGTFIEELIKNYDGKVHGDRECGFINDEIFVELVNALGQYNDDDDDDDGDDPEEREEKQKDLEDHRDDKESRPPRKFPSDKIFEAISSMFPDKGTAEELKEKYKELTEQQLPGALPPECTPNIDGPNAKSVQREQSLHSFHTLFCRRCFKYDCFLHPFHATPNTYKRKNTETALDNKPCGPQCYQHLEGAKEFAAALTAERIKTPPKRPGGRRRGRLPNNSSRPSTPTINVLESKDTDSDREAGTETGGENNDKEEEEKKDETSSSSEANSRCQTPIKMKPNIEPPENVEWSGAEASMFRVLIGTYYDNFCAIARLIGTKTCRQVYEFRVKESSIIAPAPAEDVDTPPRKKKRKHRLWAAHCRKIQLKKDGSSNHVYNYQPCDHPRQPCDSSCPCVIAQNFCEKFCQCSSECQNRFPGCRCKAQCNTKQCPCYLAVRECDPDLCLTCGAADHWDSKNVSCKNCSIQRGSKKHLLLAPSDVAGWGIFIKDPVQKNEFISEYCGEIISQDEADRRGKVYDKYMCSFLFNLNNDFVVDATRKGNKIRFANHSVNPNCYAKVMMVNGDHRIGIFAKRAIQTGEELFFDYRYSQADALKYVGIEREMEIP
Protein cereblon/Histone-lysine N-methyltransferase EZH2 (Homo sapiens), sequence (Q96SW2 whole entry, looked up): as the sequence (Q96SW2 whole entry) above
Protein cereblon/Eukaryotic peptide chain release factor GTP-binding subunit ERF3A (Homo sapiens), sequence (P15170 whole entry, looked up): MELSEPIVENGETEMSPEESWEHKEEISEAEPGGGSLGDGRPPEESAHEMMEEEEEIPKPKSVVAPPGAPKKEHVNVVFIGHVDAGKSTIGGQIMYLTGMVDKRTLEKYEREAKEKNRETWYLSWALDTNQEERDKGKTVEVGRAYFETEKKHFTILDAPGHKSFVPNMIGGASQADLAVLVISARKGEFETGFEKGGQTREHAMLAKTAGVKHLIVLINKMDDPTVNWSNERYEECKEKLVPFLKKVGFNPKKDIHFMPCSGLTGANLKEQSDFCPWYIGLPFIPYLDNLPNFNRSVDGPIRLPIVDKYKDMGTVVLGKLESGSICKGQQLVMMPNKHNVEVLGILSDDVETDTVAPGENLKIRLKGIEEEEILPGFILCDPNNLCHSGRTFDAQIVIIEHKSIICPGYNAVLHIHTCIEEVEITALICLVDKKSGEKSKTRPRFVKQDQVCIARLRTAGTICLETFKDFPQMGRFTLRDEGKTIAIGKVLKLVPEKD
Protein cereblon/Eukaryotic peptide chain release factor GTP-binding subunit ERF3A (Homo sapiens), sequence (Q96SW2 whole entry, looked up): as the sequence (Q96SW2 whole entry) above

On to `O=C(CNc1cccc2c1C(=O)N(C1CCC(=O)NC1=O)C2=O)NCCCCN1CCN(c2ccc(-c3cnc(NCc4ccco4)n4cnnc34)cc2)CC1` (stereo not drawn), for which the result in assay [1] and in assay [3] was inactive. For the same compound, the result in assay [2] was Active.
